Measurements reported in patent publication US6340704B1, “Cell differentiation inducing amide derivatives, their production and use” (Takeda Chemical Industries, Ltd., priority 1997, dated 2002).
Structures can show the parent of a compound that is named as a salt. Marks after values point to notes of the source that are not given here.

Tests used:
[1] = system: Mouse-derived MC3T3-E1 osteoblast cells; assay: Induction of alkaline phosphatase (ALP) production in mouse osteoblastic cells, with or without 3 ng/ml BMP-4/7 heterodimer; assay type: cell-based; settings: 72 hours; for ALP Activity (1000 × A405 ± SD) BMP Addition: medium with 3 ng/ml BMP-4/7 heterodimer; for ALP Activity (1000 × A405 ± SD) BMP Non-Addition: no BMP
Description: Induction of Alkaline Phosphatase (ALP) Production in Mouse Osteoblastic Cells
Mouse-derived MC3T3-E1 osteoblast cells were seeded in a 96-well microtiter plate of α-minimum essential medium containing FCS (fetal calf serum) (8000 cells/well). After two days when the growth had become confluent, the test substance diluted to various concentrations in Table 1 with the medium either containing or not containing 3 ng/ml of BMP-4/7 heterodimer (described in Japanese Patent Application No. 111255/1994) was added, and the microtiter plate was further incubated for 72 hours. The plate was washed once with a physiological saline solution, followed by addition of a substrate solution. The resulting mixture was incubated at room temperature for 15 minutes, followed by addition of 0.05N NaOH to terminate the reaction. The absorbance at 405 nm was measured.

| SMILES | melting point | ALP Activity (1000 × A405 ± SD) BMP Addition ([1]; compound 0.01 μM) | ALP Activity (1000 × A405 ± SD) BMP Non-Addition ([1]; compound 0.01 μM) | ALP Activity (1000 × A405 ± SD) BMP Addition ([1]; compound 0.1 μM) | ALP Activity (1000 × A405 ± SD) BMP Non-Addition ([1]; compound 0.1 μM) | ALP Activity (1000 × A405 ± SD) BMP Addition ([1]; compound 1 μM) | ALP Activity (1000 × A405 ± SD) BMP Non-Addition ([1]; compound 1 μM) |
| --- | --- | --- | --- | --- | --- | --- | --- |
| CN(C)C(=O)c1cc(-c2ccc3c(c2)OCO3)c2c3c(ccc2c1)OCO3 [Example 16, N,N-Dimethyl-9-(1,3,-benzodioxole-5-yl)-naphtho[1,2-d]-1,3,-dioxole-7-carboxamide] | 160 to 161 °C |  |  |  |  |  |  |
| COc1ccc(-c2cc(C(N)=O)cc3ccc4c(c23)OCO4)cc1 [Example 11, 9(4-Methoxyphenyl)-naphtho[1,2,-d]-1,3,-dioxole-7-carboxamide] | 187 to 189 °C |  |  |  |  |  |  |
| CNC(=O)c1cc2ccc3c(c2c(-c2ccc(C)cc2)c1CO)OCO3 [Example 6, N-Methyl-9-(4-methylphenyl)-8-hydroxymethyl-naphtho[1,2-d]-1,3-dioxole-7-carboxamide] | 210 to 212 °C | 177 ± 14 1000 × A405 | 51 ± 2 1000 × A405 | 248 ± 6* 1000 × A405 | 74 ± 1* 1000 × A405 | 459 ± 35* 1000 × A405 | 168 ± 1* 1000 × A405 |
| CN(C)CCCNC(=O)c1cc(-c2ccc3c(c2)OCO3)c2c3c(ccc2c1)OCO3 (as salt: hydrochloride) [Example 19, N-(3-Dimethylaminopropyl)-9-(1,3-benzodioxole-5-yl)-naphtho [1,2-d]-1,3-dioxole-7-carboxamide hydrochloride] | 233 to 240 °C |  |  |  |  |  |  |
| CNC(=O)c1cc2ccc3c(c2c(-c2ccc(OC)cc2)c1CO)OCO3 [Example 2, N-Methyl-9-(4-methoxyphenyl)-8-hydroxymethyl-naphtho[1,2-d]-1,3-dioxole-7-carboxamide] | 187 to 190 °C | 323 ± 13 1000 × A405 | 80 ± 2 1000 × A405 | 354 ± 15* 1000 × A405 | 95 ± 7* 1000 × A405 | 478 ± 17* 1000 × A405 | 162 ± 18* 1000 × A405 |
| CNC(=O)c1nc2ccc3c(c2c(-c2ccc4c(c2)OCO4)c1C)OCO3 [Example 23, N-methyl-9-(1,3-benzodioxole-5yl)-8-methyl-1,3-dioxolo [4,5-f]quinoline-7-carboxamide] | 141 to 146 °C |  |  |  |  |  |  |
| CNC(=O)c1cc2cc3c(cc2c(-c2ccc4c(c2)OCO4)c1CO)OCO3 [Example 7, N-Methyl-(1,3-benzodioxole-5-yl)-7-hydroxymethyl-naphto[2,3-d]-1,3-dioxole-6-carboxamide] | 222 to 224 °C |  |  |  |  |  |  |
| CNC(=O)c1cc2ccc3c(c2c(-c2ccc4ccccc4c2)c1CO)OCO3 [Example 4, N-Methyl-9-(2-naphthyl)-8-hydroxymethyl-naphtho[1,2-d]-1,3-dioxole-7-carboxamide] | 207 to 210 °C | 301 ± 8 1000 × A405 | 86 ± 3 1000 × A405 | 389 ± 25* 1000 × A405 | 108 ± 7* 1000 × A405 | 554 ± 49* 1000 × A405 | 168 ± 4* 1000 × A405 |
| NC(=O)c1cc(-c2ccc(OC(F)(F)F)cc2)c2c3c(ccc2c1)OCO3 [Example 25, 9-(4-Trifluoromethoxyphenyl)naphtho[1,2-d]-1,3-dioxol-7-carboxamide] | 188 to 190 °C |  |  |  |  |  |  |
| Cc1c(C(N)=O)cc(-c2ccc3c(c2)OCO3)c2c3c(ccc12)OCO3 [Example 13, 9-(1,3-Benzodioxole-5-yl)-6-methyl-naphto[1,2-d]-1,3-dioxole-7-carboxamide] | 237 to 239 °C |  |  |  |  |  |  |
| CNC(=O)c1cc2ccc3c(c2c(-c2ccc(F)cc2)c1CO)OCO3 [Example 5, N-Methyl-9-(4-fluorophenyl)-8-hydroxymethyl-naphtho[1,2-d]-1,3-dioxole-7-carboxamide] | 210 to 213 °C | 170 ± 20 1000 × A405 | 49 ± 1 1000 × A405 | 237 ± 14* 1000 × A405 | 62 ± 3* 1000 × A405 | 431 ± 26* 1000 × A405 | 157 ± 11* 1000 × A405 |
| O=C(c1cc(-c2ccc(F)cc2)c2c3c(ccc2n1)OCO3)N1CCN(Cc2ccccc2)CC1 [Example 48, N-Benzyl-N-[9-(4-fluorophenyl)-1,3-dioxolo[4,5-f]quinoline-7-carbonyl]piperazine] | 147 to 148 °C |  |  |  |  |  |  |
| CNC(=O)c1nc2ccc(C)cc2c(-c2ccc(F)cc2F)c1CO [Example 10, N-Methyl-[3-hydroxymethyl-6-methyl-4-(2,4-difluorophenyl)quinoline]-2-carboxamide] | 140 to 141 °C |  |  |  |  |  |  |
| Cc1c(C(N)=O)nc2ccc3c(c2c1-c1ccc2c(c1)OCO2)OCO3 [Example 22, 9-(1,3-Benzodioxole-5-yl)-8-methyl-1,3-dioxole[4,4-f]quinoline-7-carboxamide] |  | 187 ± 3 1000 × A405 | 135 ± 8* 1000 × A405 | 226 ± 6* 1000 × A405 | 149 ± 11* 1000 × A405 | 326 ± 18* 1000 × A405 | 190 ± 10* 1000 × A405 |
| CNC(=O)c1nc2ccc(C)cc2c(-c2ccccc2)c1CO [Example 9, N-methyl-(3-hydroxmethyl-6-methyl-4-phenylquinoline)-2-carboxamide] | 136 to 137 °C |  |  |  |  |  |  |
| NC(=O)c1nc2ccc3c(c2c(-c2ccc4c(c2)OCO4)c1CO)OCO3 [Example 8, 9(1,3-Benzodioxole-5-yl)-8hydroxymethyl-1,3-dioxolo[4,5-f]quinoline-7-carboxamide] |  | 426 ± 28 1000 × A405 | 105 ± 22 1000 × A405 | 477 ± 15* 1000 × A405 | 134 ± 12 1000 × A405 | 570 ± 63* 1000 × A405 | 186 ± 26 1000 × A405 |
| CNC(=O)c1cc2ccc3c(c2c(-c2ccc(OC(F)(F)F)cc2)c1CO)OCO3 [Example 24, N-Methyl-9-(4-trifluoromethoxyphenyl)-8-hydroxymethylnaphtho[1,2-d]-1,3-dioxol-7-carboxamide] | 195 to 197 °C |  |  |  |  |  |  |
| CNC(=O)c1cc2ccc3c(c2c(-c2ccc4c(c2)OCO4)c1CO)OCO3 [Example 1, N-Methyl-9-(1,3-benzodioxole-5-yl)-8-hydroxymethylnaphtho[1,2-d]-1,3-dioxole-7-carboxamide] | 233 to 235 °C | 193 ± 15 1000 × A405 | 50 ± 5 1000 × A405 | 213 ± 5* 1000 × A405 | 58 ± 5* 1000 × A405 | 386 ± 30* 1000 × A405 | 102 ± 5* 1000 × A405 |
| CNC(=O)c1cc(-c2ccc3c(c2)OCO3)c2c3c(ccc2c1)OCO3 [Example 15, N-Methyl-9-(1,3-benzodioxole-5-yl)-naphtho;[1,2,-d]-1,3-dioxole-7-carboxamide] | 206 to 208 °C |  |  |  |  |  |  |
| CNC(=O)c1cc2ccc3c(c2c(-c2ccc(Cl)cc2)c1CO)OCO3 [Example 3, N-Methyl-9-(4-chlorophenyl)-8-hydroxymethyl-naphtho[1,2-d]-1,3-dioxole-7-carboxamide] | 202 to 204 °C |  |  |  |  |  |  |
| NC(=O)c1cc(-c2ccc(C(F)(F)F)cc2)c2c3c(ccc2c1)OCO3 [Example 12, 9-(4-Trifluromethylphenyl)-naphto[1,2-d]-1,3-dixole-7-carboxamide] | 207 to 209 °C |  |  |  |  |  |  |
| CNC(=O)c1cc(-c2ccc(F)cc2)c2c3c(ccc2n1)OCO3 [Example 46, 9-(4-Fluorophenyl)-N-methyl-1,3-dioxolo[4,5-F]quinoline-7-carboxamide] | 233 to 235 °C |  |  |  |  |  |  |
| NC(=O)c1cc(-c2ccc3c(c2)OCO3)c2c3c(ccc2c1)OCO3 [Example 14, 9-(1,3-Benzodioxole-5-yl)-naphtho[1,2-d]-1,3-dioxole-7-carboxamide] | 267 to 269 °C |  |  |  |  |  |  |
